Laboratory results published in patent EP2650284A1, “Heterocyclic derivatives as metabotropic glutamate receptor modulators” (Merz Pharma GmbH & Co. KGaA, priority 2012, dated 2013).
Where two headings read alike, the source gives them in different places.

What was measured:
[1] = biological target: T1, human metabotropic glutamate receptor mGluR5 (Homo sapiens, UniProt P41594); test: Cytosolic calcium studies with stably transfected cells (h5CHO), functional assay of mGluR5 receptors; format: cell-based; conditions: for EC50: positive modulators, h5CHO cells preincubated with modulator, stimulated by an EC20 concentration of L-glutamate, read-out: hEC50
T1 construct: expressed in transfected cells; host or cells: CHO-K1 (h5CHO), IPTG-inducible
Method in brief: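 IPTG-induced h5CHO (CHO-K1 expressing human mGluR5) loaded with calcium dye; compounds (0.5% DMSO) added 5 min before agonist. NAM IC50 against L-quisqualate at ~EC80; PAM EC50 with EC20 L-glutamate. FLIPR fluorescence, max-minus-min, % of maximal response, logistic fit.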

[2] = biological target: T2, mGluR5 receptors (Rattus norvegicus, UniProt P31424); test: Cytosolic calcium studies with astrocytes (FLIPR), functional assay of mGluR5 receptors; format: cell-based
T2 construct: Primary astrocyte cultures are prepared from cortices of newborn rats; endogenous in cells; host or cells: primary cortical astrocytes from Sprague-Dawley rat pups (2-4 d old)
Method in brief: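 Rat cortical primary astrocytes at 14-15 DIV, loaded with Ca-sensitive dye for 2 h at RT, pH 7.3 buffer; FLIPR fluorescence after L-quisqualate (100 nM), antagonists pre-incubated 10 min. PAMs: quisqualate curves ± 10 µM modulator, or modulator curves at fixed 10-30 nM quisqualate. Max-min responses as % control, logistic fit.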

[3] = biological target: T3, mGluR5 binding site (Rattus norvegicus, UniProt P31424); test: [3H]-M-MPEP displacement studies on rat cortical membranes; conditions: Table A3, [3H]-M-MPEP 2 nM, 4°C for 1 h, median, read-out: Ki (MMPEP)
T3 construct: from tissue; host or cells: cortex of adult male Sprague-Dawley rats, membrane preparation
Experimental: Tissue preparation is performed according to Foster & Wong (Br. J. Pharmacol., 1987, 91, 403-409) with some modifications. Anaesthetised male Sprague-Dawley rats (200-250 g, Janvier, Le Genest-Isle, France) are decapitated and their brains are removed rapidly. The cortex is dissected out and processed as described by Parsons, et al. (J. Pharmacol. Exp. Ther., 1997, 283(3): 1264-1275). For isolation of the cell membranes, the cortices are homogenized in 20 volumes of ice-cold 0.32 M sucrose (Sigma-Aldrich, Taufkirchen, Germany) using a glass-Teflon homogenizer. The homogenate is centrifuged at 1000 x g for 10 minutes, the pellet is discarded and the supernatant centrifuged at 20,000 x g for 20 minutes. The resulting pellet is resuspended in 20 volumes of distilled water and centrifuged for 20 minutes at 8000 x g. The supernatant and the buffy coat are then centrifuged six times (48,000 x g for 20 minutes) in the presence of 5 mM Tris-HCl, pH 7.5. All centrifugation steps are carried out at 4°C. After resuspension in 5 volumes of 5 mM Tris-HCl, pH 7.5, the membrane suspension is frozen rapidly at -80°C.
On the day of assay, the membrane suspensions are thawed, centrifuged (48,000 x g for 20 minutes) and then resuspended in 50 mM Tris-HCl, pH 7.5 (assay buffer). The amount of protein in the final membrane preparation is determined according to the method of Lowry, et al. (J. Biol. Chem., 1951, 193, 256-275). The final concentration used for our studies is 400 µg / ml.
The Tecan robotic system designed for binding assays is loaded with the membrane solution, a 96 well stock plate containing the solutions for bound control (buffer/DMSO 10%), unlabeled MPEP (10 µM) for evaluation of non-specific binding, all compounds to be tested (at 20-fold concentrations), various empty 96-well plates for dilutions and the final assay plates, as well as a 96-well plate filled with the radioligand.
Before performing displacement studies, saturation experiments are performed to determine the equilibrium dissociation constant (Kd, Cheng and Prussoff, Biochem. Pharmacol., 1973, 22: 3099-3108) of [^3H]-M-MPEP, which is a parameter for the affinity of the radioligand to the binding site. On the basis of the saturation experiments, a final [^3H]-M-MPEP concentration of 2 nM was selected.
Firstly, the assay plates are loaded with membrane solution and are shaken at 4°C. The mother plates were then prepared by pipetting the compounds (n = 5) into assay buffer/10% DMSO to obtain the desired final concentrations. After transferring radioligand into the assay plates, the compounds are added (including the non-specific binding control containing MPEP). The final DMSO concentration is always 1 %. The assay plates are incubated and shaken at 4°C for 1 h, before the mixture is exhausted as rapidly as possible via a vacuum manifold using the Multiscreen HTS glass fibre (type B) high flow filter plates (Millipore, Schwalbach, Germany) under a constant vacuum of 450 mbar. The membranes are washed four times with cold assay buffer (100 µL). 50 µL of Ultima Gold scintillation cocktail (PerkinElmer) is added to the wet filter plates and incubated at rt overnight before counting the disintegration per minutes using a liquid scintillation counter (MicroBeta, PerkinElmer).
For the evaluation of the test compound binding affinity to the mGluR5 binding site and its potency to displace [^3H]-M-MPEP, the measured radioactivity of the radioligand alone was set as 100% bound control and the non-specific binding of the radioligand represented the 0% control. The residual radioactivity after displacement of the test compound was then corrected with respect to the set controls. Data are given as median IC50 and Ki, respectively.

[4] = Table A1, left shift of agonist EC50, dose response curves in the presence of 10 µM modulator or vehicle, h5CHO cells
[5] = Table A1, left shift of quisqualate EC50 in the presence and absence of 10 µM modulator
[6] = Table A1, positive modulators, fixed concentration of quisqualate (normally 10-30 nM), read-out: rEC50
[7] = Table A3 (SAMs / very weak PAMs), agonist EC50 shift with 10 µM modulator or vehicle, h5CHO cells

T2 sequence (P31424 21-1203): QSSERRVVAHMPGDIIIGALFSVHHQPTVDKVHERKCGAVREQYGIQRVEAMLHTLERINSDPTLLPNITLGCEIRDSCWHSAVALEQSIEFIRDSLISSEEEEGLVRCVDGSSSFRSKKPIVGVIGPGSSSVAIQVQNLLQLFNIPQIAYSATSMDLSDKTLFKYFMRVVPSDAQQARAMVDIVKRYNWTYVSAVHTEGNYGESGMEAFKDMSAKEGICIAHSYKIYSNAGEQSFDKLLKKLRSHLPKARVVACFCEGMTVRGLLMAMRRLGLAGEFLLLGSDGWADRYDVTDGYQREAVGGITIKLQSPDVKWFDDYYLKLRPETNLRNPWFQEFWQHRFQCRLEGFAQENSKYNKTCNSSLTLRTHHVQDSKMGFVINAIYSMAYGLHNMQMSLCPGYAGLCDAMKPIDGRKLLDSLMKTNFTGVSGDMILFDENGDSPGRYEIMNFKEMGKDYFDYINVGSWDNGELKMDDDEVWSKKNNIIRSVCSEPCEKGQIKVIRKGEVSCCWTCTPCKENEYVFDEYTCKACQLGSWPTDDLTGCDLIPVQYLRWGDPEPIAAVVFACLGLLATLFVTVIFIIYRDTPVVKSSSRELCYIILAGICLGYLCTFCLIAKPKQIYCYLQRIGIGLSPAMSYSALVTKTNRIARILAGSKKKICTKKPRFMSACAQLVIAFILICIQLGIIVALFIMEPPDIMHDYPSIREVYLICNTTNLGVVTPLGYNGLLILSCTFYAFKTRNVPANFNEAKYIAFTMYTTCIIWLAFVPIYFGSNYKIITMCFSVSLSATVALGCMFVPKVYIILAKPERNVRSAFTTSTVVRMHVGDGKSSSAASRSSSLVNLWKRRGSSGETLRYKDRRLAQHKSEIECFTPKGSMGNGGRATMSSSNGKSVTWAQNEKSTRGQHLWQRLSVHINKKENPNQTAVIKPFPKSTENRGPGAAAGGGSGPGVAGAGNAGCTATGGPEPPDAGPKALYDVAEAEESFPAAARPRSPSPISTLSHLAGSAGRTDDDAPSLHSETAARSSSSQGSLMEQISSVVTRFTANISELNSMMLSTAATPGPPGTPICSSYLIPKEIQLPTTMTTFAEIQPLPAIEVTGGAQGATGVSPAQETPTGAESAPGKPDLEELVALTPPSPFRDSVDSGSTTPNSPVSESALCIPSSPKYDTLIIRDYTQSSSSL
T1 sequence (P41594 21-1212): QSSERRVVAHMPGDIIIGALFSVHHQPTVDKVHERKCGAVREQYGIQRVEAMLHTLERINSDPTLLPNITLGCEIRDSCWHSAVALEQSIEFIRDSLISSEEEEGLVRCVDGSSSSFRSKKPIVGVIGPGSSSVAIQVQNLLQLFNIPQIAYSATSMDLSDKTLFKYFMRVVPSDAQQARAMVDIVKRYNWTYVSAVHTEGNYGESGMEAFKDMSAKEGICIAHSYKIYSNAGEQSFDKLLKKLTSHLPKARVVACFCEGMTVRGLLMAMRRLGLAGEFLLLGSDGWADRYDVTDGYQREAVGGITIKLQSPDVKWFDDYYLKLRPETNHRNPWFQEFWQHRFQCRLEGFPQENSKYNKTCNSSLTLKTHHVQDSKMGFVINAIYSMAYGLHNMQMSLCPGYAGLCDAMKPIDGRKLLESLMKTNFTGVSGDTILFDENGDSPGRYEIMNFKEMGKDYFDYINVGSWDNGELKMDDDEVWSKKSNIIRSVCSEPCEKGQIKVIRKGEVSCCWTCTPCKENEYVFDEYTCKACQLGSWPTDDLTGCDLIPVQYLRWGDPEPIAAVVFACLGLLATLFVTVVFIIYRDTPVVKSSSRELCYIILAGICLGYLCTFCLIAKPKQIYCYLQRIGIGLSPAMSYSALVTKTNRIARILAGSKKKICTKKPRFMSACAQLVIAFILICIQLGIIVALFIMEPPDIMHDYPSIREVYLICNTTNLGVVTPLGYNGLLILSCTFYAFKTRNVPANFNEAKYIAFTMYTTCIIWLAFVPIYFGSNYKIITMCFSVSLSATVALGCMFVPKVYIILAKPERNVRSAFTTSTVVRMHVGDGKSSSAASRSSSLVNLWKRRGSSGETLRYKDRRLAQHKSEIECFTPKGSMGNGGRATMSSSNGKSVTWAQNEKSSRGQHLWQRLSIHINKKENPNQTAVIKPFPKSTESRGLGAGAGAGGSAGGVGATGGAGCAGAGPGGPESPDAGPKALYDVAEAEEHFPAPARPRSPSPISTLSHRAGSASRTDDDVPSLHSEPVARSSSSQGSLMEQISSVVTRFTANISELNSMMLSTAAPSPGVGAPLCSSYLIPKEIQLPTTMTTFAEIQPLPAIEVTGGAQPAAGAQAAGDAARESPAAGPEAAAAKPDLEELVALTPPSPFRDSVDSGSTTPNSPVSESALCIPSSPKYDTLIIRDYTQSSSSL
T3 sequence (P31424 21-1203): as the sequence (P31424 21-1203) above

Molecule	h left shift [1, 4]	EC50 ([1]; Table A1) [nM]	r left shift [2, 5]	EC50 [2, 6] [nM]	also measured
O=C(N1CCCCC1)N1CCc2ncc(C#Cc3ccccc3)cc2C1 [Example 50, (3-(Phenylethynyl)-7,8-dihydro-1,6-naphthyridin-6(5H)-yl)(piperidin-1-yl)methanone]	2.1-fold	843	1.9-fold		
N#Cc1cccc(C#Cc2cnc3c(c2)CN(C(=O)N2CCCCC2)CC3)c1 [Example 51, 3-((6-(Piperidine-1-carbonyl)-5,6,7,8-tetrahydro-1,6-naphthyridin-3-yl)ethynyl)benzonitrile]					IC50 ([1]; Table A2, negative modulation, compounds added 5 minutes before L-quisqualic acid (~80% of the maximal signal), h5CHO cells, read-out: hIC50): 740 nM; IC50 ([2]; Table A2, pre-incubated 10 minutes before L-quisqualate (100 nM), read-out: rIC50): 2330 nM
CN(C)S(=O)(=O)N1CCc2ncc(C#Cc3ccccc3)cc2C1 [Example 52, N,N-Dimethyl-3-(phenylethynyl)-7,8-dihydro-1,6-naphthyridine-6(5H)-sulfonamide]	2.0-fold	240	1.8-fold	83.1	
O=S(=O)(N1CCCC1)N1CCc2ncc(C#Cc3ccccc3)cc2C1 [Example 53, 3-(Phenylethynyl)-6-(pyrrolidin-1-ylsulfonyl)-5,6,7,8-tetrahydro-1,6-naphthyridine]	1.6-fold		2.8-fold	152	
O=S(=O)(N1CCCCC1)N1CCc2ncc(C#Cc3ccccc3)cc2C1 [Example 54, 3-(Phenylethynyl)-6-(piperidin-1-ylsulfonyl)-5,6,7,8-tetrahydro-1,6-naphthyridine]	2.0-fold	726	2.5-fold	472	
O=S(=O)(N1CCOCC1)N1CCc2ncc(C#Cc3ccccc3)cc2C1 [Example 55, 4-((3-(Phenylethynyl)-7,8-dihydro-1,6-naphthyridin-6(5H)-yl)sulfonyl)morpholine]	2.7-fold	440	3.8-fold	325	
CC(C)S(=O)(=O)N1CCc2ncc(C#Cc3ccccc3)cc2C1 [Example 81, 6-(Isopropylsulfonyl)-3-(phenylethynyl)-5,6,7,8-tetrahydro-1,6-naphthyridine]					h left shift [1, 7]: 1.5-fold; r left shift ([2]; Table A3 (SAMs / very weak PAMs), quisqualate EC50 shift with 10 µM modulator): 1.5-fold; EC50 ([2]; Table A3, given in brackets where Ki is n.d., read-out: r EC50): 51.1 nM
(rac)-cis-Methyl 3-((3-fluorophenyl)ethynyl)-6a,7,9,9a-tetrahydro-5H-pyrrolo[3,4-h]quinoline-8(6H)-carboxylate [Example 32]					h left shift [1, 7]: 0.9-fold; Ki [3]: 49.3 nM

The next lines start with results.

h left shift [1, 4]	EC50 ([1]; Table A1) [nM]	r left shift [2, 5]	EC50 [2, 6] [nM]	Molecule	also measured
3.0-fold	499	3.3-fold	296	O=S(=O)(N1CCCCCC1)N1CCc2ncc(C#Cc3ccccc3)cc2C1 [Example 56, 6-(Azepan-1-ylsulfonyl)-3-(phenylethynyl)-5,6,7,8-tetrahydro-1,6-naphthyridine]	
2.2-fold	241	1.3-fold	32.7	COC(=O)N1CC[C@H]2c3ncc(C#Cc4ccccc4)cc3CC[C@H]21 [Example 71, (6aR,9aR)-Methyl 3-(phenylethynyl)-6,6a,9,9a-tetrahydro-5H-pyrrolo[2,3-h]quinoline-7(8H)-carboxylate]	
1.7-fold		1.3-fold	27.3	COC(=O)N1CC[C@H]2c3ncc(C#Cc4cccc(F)c4)cc3CC[C@H]21 [Example 72, (6aR,9aR)-Methyl 3-((3-fluorophenyl)ethynyl)-6,6a,9,9a-tetrahydro-5H-pyrrolo[2,3-h]quinoline-7(8H)-carboxylate]	
2.8-fold	25.4	2.8-fold	22.1	CCOC(=O)C(=O)N1CCc2ncc(C#Cc3ccccc3)cc2C1 [Example 77, Ethyl 2-oxo-2-(3-(phenylethynyl)-7,8-dihydro-1,6-naphthyridin-6(5H)-yl)acetate]	
1.7-fold	2020		2050	CN1CCN(S(=O)(=O)N2CCc3ncc(C#Cc4ccccc4)cc3C2)CC1 [Example 78, 6-((4-Methylpiperazin-1-yl)sulfonyl)-3-(phenylethynyl)-5,6,7,8-tetrahydro-1,6-naphthyridine]	
